Our source for the EC50 and Inhibition values is ChEMBL document CHEMBL1133439, “Synthesis and biological evaluation of enantiopure thionitrites: the solid-phase synthesis and nitrosation of D-glutathione as a molecular probe” (Bioorg Med Chem Lett, 2000).

For experiment [1], the species on record is Rattus norvegicus. Kind of experiment: Effective concentration required for relaxation of rat aortic rings. The format is functional. The following applies: Aorta.
The species named for experiment [2] is Rattus norvegicus. Kind of experiment: Percentage Inhibition of relaxation of phenylephrine-induced tone in rat aortic smooth muscle at ~1000 nM. Format: functional, Aorta.
The species entered for experiment [3] is Rattus norvegicus. Kind of experiment: Percentage Inhibition of relaxation of phenylephrine-induced tone in rat aortic smooth muscle at ~100 nM. The format is functional, Aorta.
For experiment [4], the species on record is Rattus norvegicus. Kind of experiment: Percentage Inhibition of relaxation of phenylephrine-induced tone in rat aortic smooth muscle at ~5000 nM. The format is functional, Aorta.
The species entered for experiment [5] is Rattus norvegicus. Kind of experiment: Percentage Inhibition of relaxation of phenylephrine-induced tone in rat aortic smooth muscle at ~600 nM. The format is functional, Aorta.
The species entered for experiment [6] is Rattus norvegicus. Kind of experiment: Percentage Inhibition of relaxation of phenylephrine-induced tone in rat aortic smooth muscle at ~10000 nM. Format: functional, Aorta.
The species named for experiment [7] is Rattus norvegicus. Kind of experiment: Percentage Inhibition of relaxation of phenylephrine-induced tone in rat aortic smooth muscle at ~10 nM. Format: functional, Aorta.
The species named for experiment [8] is Rattus norvegicus. Kind of experiment: Percentage Inhibition of relaxation of phenylephrine-induced tone in rat aortic smooth muscle at ~500 nM. The format is functional, Aorta.

The EC50 is the concentration needed to bring the measured effect to its halfway point. A lower EC50 goes with greater potency. For orientation: Inhibition means the relative decrease from the control value, in per cent. High values mean a response far below the control, low ones a response near the control. On to `N[C@H](CCC(=O)N[C@H](CSN=O)C(=O)NCC(=O)O)C(=O)O`, for which a half-maximal response in the experiment listed under Rattus norvegicus [1] (EC50) required 290 nM. The Inhibition stood at 80% in the experiment listed under Rattus norvegicus [2], 25% in the experiment filed under Rattus norvegicus [3], 100% in the experiment listed under Rattus norvegicus [4] and 50% in the experiment listed under Rattus norvegicus [5].

`N[C@@H](CSN=O)C(=O)O` gave an EC50 in the experiment listed under Rattus norvegicus [1] of 2 nM.

`CC(=O)N[C@H](C(=O)O)C(C)(C)SN=O` showed an EC50 in the experiment listed under Rattus norvegicus [1] of 476 nM.

For the compound `N[C@H](CSN=O)C(=O)O`, it took 2.1 nM to reach a half-maximal effect in the experiment filed under Rattus norvegicus [1] (EC50).

Take `CC(=O)N[C@@H](C(=O)O)C(C)(C)SN=O`: in the experiment filed under Rattus norvegicus [1], the EC50 stood at 492 nM.

Turning to `N[C@@H](CCC(=O)N[C@@H](CSN=O)C(=O)NCC(=O)O)C(=O)O` [S-NITROSOGLUTATHIONE], in the experiment listed under Rattus norvegicus [1], it took 108 nM to reach a half-maximal effect (EC50). The Inhibition in the experiment listed under Rattus norvegicus [6] is given as 100%; in the experiment listed under Rattus norvegicus [2], 90%; in the experiment listed under Rattus norvegicus [3], 50%; in the experiment listed under Rattus norvegicus [7] it was 20%; in the experiment filed under Rattus norvegicus [8], 80%.
